Drawing on patent US20220388964A1 (HiberCell, Inc., priority 2019, published 2022), this text covers IC50 for 29 compounds.

pIC50: −log10 of the molar value.

The target in this assay is GCN2 (Homo sapiens, UniProt Q9P2K8). Kind of assay: TR-FRET biochemical assay for inhibition of GCN2 (Example 106, for Example 1-4BB). Particulars: Table 9. For orientation: TR-FRET usually uses a lanthanide donor and a delayed reading to cut background.
Sequence of GCN2 (Q9P2K8 whole entry): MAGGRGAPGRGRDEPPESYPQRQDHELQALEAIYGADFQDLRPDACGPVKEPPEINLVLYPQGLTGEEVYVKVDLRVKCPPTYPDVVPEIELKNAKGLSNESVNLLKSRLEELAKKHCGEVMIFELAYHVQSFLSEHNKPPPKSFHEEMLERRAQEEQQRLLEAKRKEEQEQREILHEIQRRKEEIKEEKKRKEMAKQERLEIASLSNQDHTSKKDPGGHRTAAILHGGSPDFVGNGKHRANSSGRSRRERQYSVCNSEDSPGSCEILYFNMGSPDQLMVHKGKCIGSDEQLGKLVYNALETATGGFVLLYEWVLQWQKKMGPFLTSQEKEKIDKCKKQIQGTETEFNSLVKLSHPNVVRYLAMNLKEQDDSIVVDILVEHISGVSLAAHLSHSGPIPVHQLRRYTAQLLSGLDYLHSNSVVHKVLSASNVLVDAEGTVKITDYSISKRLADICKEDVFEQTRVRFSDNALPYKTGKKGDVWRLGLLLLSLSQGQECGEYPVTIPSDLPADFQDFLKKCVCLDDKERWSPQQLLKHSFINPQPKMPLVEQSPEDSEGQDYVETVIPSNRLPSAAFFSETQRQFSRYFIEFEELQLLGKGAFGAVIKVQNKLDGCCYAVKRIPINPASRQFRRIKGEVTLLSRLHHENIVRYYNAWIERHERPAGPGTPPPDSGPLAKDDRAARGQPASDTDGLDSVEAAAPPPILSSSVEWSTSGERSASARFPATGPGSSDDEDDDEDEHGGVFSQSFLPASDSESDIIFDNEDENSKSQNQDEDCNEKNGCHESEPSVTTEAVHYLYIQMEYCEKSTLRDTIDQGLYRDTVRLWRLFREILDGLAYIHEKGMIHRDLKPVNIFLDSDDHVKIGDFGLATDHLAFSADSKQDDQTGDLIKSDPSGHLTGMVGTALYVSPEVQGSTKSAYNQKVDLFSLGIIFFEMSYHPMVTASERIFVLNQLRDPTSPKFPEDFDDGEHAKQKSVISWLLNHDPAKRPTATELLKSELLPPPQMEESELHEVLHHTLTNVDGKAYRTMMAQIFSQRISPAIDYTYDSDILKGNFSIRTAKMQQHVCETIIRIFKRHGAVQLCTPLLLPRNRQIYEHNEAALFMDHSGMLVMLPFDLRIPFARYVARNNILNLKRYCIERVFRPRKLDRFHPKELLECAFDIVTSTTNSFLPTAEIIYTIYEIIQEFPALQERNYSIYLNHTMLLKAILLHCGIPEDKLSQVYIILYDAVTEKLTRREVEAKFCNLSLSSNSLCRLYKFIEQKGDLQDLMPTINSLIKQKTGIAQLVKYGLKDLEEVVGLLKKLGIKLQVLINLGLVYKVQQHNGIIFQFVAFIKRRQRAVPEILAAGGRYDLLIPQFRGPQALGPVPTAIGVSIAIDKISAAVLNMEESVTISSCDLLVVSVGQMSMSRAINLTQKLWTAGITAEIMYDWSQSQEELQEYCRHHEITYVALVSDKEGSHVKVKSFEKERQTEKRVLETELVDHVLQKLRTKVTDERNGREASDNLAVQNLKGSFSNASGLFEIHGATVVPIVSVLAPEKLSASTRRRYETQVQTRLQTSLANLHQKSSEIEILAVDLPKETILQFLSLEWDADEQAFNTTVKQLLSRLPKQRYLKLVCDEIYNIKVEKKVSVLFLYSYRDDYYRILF
In turn, `COc1ncc(Cl)cc1S(=O)(=O)Nc1ccc(F)c(-c2ccc3c(C(=O)N[C@H]4CCN(C)C4)n[nH]c3c2F)c1F` [Example 3AF, 6-(3-((5-chloro-2-methoxy-pyridine)-3-sulfonamido)-2,6-difluorophenyl)-7-fluoro-N-((S)-1-methylpyrrolidin-3-yl)-1H-indazole-3-carboxamide] gave a pIC50 above 6.30. Then `COc1ncc(Cl)cc1S(=O)(=O)Nc1cccc(-c2ncc3c(-c4ncc[nH]4)n[nH]c3c2F)c1F` [Example 3AG, 5-chloro-N-(2-fluoro-3-(7-fluoro-3-(1H-imidazol-2-yl)-1H-pyrazolo[4,3-c]pyridin-6-yl)phenyl)-2-methoxy-pyridine-3-sulfonamide], with above 6.30. Then `COc1ncc(F)cc1S(=O)(=O)Nc1ccc(F)c(-c2ccc3c(C(=O)NC[C@@H](O)CO)n[nH]c3c2F)c1F` [Example 3AH, 6-(2,6-difluoro-3-((5-fluoro-2-methoxypyridine)-3-sulfonamido)phenyl)-N-((R)-2,3-dihydroxypropyl)-7-fluoro-1H-indazole-3-carboxamide], with above 6.30; and `COc1ncc(F)cc1S(=O)(=O)Nc1ccc(F)c(-c2ccc3c(C(=O)NC[C@H](O)CO)n[nH]c3c2F)c1F` [Example 3AI, 6-(2,6-difluoro-3-((5-fluoro-2-methoxypyridine)-3-sulfonamido)phenyl)-N-((R)-2,3-dihydroxypropyl)-7-fluoro-1H-indazole-3-carboxamide], with above 6.30; and `COc1ncc(F)cc1S(=O)(=O)Nc1ccc(F)c(-c2ccc3c(C(=O)NC4CCN(C)CC4)n[nH]c3c2F)c1F` [Example 3AJ, 6-(2,6-difluoro-3-((5-fluoro-2-methoxypyridine)-3-sulfonamido)phenyl)-7-fluoro-N-(1-methylpiperidin-4-yl)-1H-indazole-3-carboxamide], with above 6.30.

As for `COc1ncc(F)cc1S(=O)(=O)Nc1ccc(F)c(-c2ccc3c(C(=O)NCC4CCN(C)CC4)n[nH]c3c2F)c1F` [Example 3AK, 6-(2,6-difluoro-3-((5-fluoro-2-methoxypyridine)-3-sulfonamido)phenyl)-7-fluoro-N-((1-methylpiperidin-4-yl)methyl)-1H-indazole-3-carboxamide], the pIC50 was above 6.30.

Compound `COc1ncc(F)cc1S(=O)(=O)Nc1ccc(F)c(-c2ccc3c(C(=O)NCCC(N)=O)n[nH]c3c2F)c1F` [Example 3AL, N-(3-amino-3-oxopropyl)-6-(2,6-difluoro-3-((5-fluoro-2-methoxypyridine)-3-sulfonamido)phenyl)-7-fluoro-1H-indazole-3-carboxamide] gave a pIC50 above 6.30. To `COc1ncc(F)cc1S(=O)(=O)Nc1ccc(F)c(-c2ccc3c(C(=O)NCC(N)=O)n[nH]c3c2F)c1F` [Example 3AM, N-(2-amino-2-oxoethyl)-6-(2,6-difluoro-3-((5-fluoro-2-methoxypyridine)-3-sulfon-amido)phenyl)-7-fluoro-1H-indazole-3-carboxamide] belongs 5.60 to 6.30; to `COc1ncc(F)cc1S(=O)(=O)Nc1cccc(-c2ccc3c(C(N)=O)n[nH]c3c2F)c1F` [Example 3AN, 7-fluoro-6-(2-fluoro-3-((5-fluoro-2-methoxypyridine)-3-sulfonamido)phenyl)-1H-indazole-3-carboxamide], above 6.30. In turn, `COc1ccc(NS(=O)(=O)c2cc(F)cnc2OC)c(F)c1-c1ccc2c(C(N)=O)n[nH]c2c1F` [Example 3AO, 7-fluoro-6-(2-fluoro-3-((5-fluoro-2-methoxypyridine)-3-sulfonamido)-6-methoxy-phenyl)-1H-indazole-3-carboxamide] gave a pIC50 of 5.60 to 6.30. To `COc1ncc(F)cc1S(=O)(=O)Nc1cc(F)cc(-c2ccc3c(C(=O)NCCCO)n[nH]c3c2F)c1F` [Example 3AP, 6-(2,5-difluoro-3-((5-fluoro-2-methoxypyridine)-3-sulfon-amido)phenyl)-7-fluoro-N-(3-hydroxypropyl)-1H-indazole-3-carboxamide] belongs above 6.30.

`COc1ncc(F)cc1S(=O)(=O)Nc1cc(F)cc(-c2ccc3c(C(N)=O)n[nH]c3c2F)c1F` [Example 3AQ, 6-(2,5-difluoro-3-((5-fluoro-2-methoxypyridine)-3-sulfon-amido)phenyl)-7-fluoro-1H-indazole-3-carboxamide] gave a pIC50 above 6.30. Compound `O=C(NCCCO)c1n[nH]c2c(F)c(-c3c(F)ccc(NS(=O)(=O)c4cccn5ccnc45)c3F)ccc12` [Example 3AR, 6-(2,6-difluoro-3-(imidazo-[1,2-a]pyridine-8-sulfon-amido)phenyl)-7-fluoro-N-(3-hydroxypropyl)-1H-indazole-3-carboxamide] gave a pIC50 of 5.00 to 5.60. The compound `COc1ncc(F)cc1S(=O)(=O)Nc1cc(F)cc(-c2ccc3c(-c4ncc[nH]4)n[nH]c3c2F)c1F` [Example 3AS, N-(2,5-difluoro-3-(7-fluoro-3-(1H-imidazol-2-yl)-1H-indazol-6-yl)phenyl)-5-fluoro-2-methoxypyridine-3-sulfonamide] had a negative logarithm of the IC50 (pIC50) above 6.30.

`COc1ncc(F)cc1S(=O)(=O)Nc1ccc(F)c(-c2ccc3c(C(=O)NCC(CO)CO)n[nH]c3c2F)c1F` [Example 3AT, 6-(2,6-difluoro-3-((5-fluoro-2-methoxypyridine)-3-sulfonamido)phenyl)-7-fluoro-N-(3-hydroxy-2-(hydroxymethyl)propyl)-1H-indazole-3-carboxamide] showed a pIC50 above 6.30.

Regarding `COc1ncc(F)cc1S(=O)(=O)Nc1ccc(F)c(-c2ccc3c(C(=O)NC4CCNCC4)n[nH]c3c2F)c1F` [Example 3AU, 6-(2,6-difluoro-3-((5-fluoro-2-methoxypyridine)-3-sulfonamido)phenyl)-7-fluoro-N-(piperidin-4-yl)-1H-indazole-3-carboxamide], the pIC50 was 5.60 to 6.30. The compound `COc1ncc(F)cc1S(=O)(=O)Nc1ccc(F)c(-c2ccc3c(C(=O)NCCCNC(C)=O)n[nH]c3c2F)c1F` [Example 3AV, N-(3-acetamidopropyl)-6-(2,6-difluoro-3-((5-fluoro-2-methoxypyridine)-3-sulfon-amido)phenyl)-7-fluoro-1H-indazole-3-carboxamide] had a pIC50 above 6.30. To `COc1ncc(F)cc1S(=O)(=O)Nc1ccc(F)c(-c2ccc3c(C(=O)NCC#N)n[nH]c3c2F)c1F` [Example 3AW, N-(cyanomethyl)-6-(2,6-difluoro-3-((5-fluoro-2-methoxypyridine)-3-sulfon-amido)phenyl)-7-fluoro-1H-indazole-3-carboxamide] belongs above 6.30; to `COc1ncc(F)cc1S(=O)(=O)Nc1cccc(-c2ccc3c(C(=O)NC[C@@H](O)CO)n[nH]c3c2F)c1F` [Example 3AX, 6-(2-fluoro-3-((5-fluoro-2-methoxypyridine)-3-sulfonamido)phenyl)-N-((R)-2,3-dihydroxypropyl)-7-fluoro-1H-indazole-3-carboxamide], 5.60 to 6.30; to `COc1ncc(F)cc1S(=O)(=O)Nc1cccc(-c2ccc3c(C(=O)NC[C@H](O)CO)n[nH]c3c2F)c1F` [Example 3AY, 6-(2-fluoro-3-((5-fluoro-2-methoxypyridine)-3-sulfonamido)phenyl)-N-((S)-2,3-dihydroxypropyl)-7-fluoro-1H-indazole-3-carboxamide], 5.60 to 6.30. To `Cc1ncc(F)cc1S(=O)(=O)Nc1ccc(F)c(-c2ccc3c(C(=O)NCCCO)n[nH]c3c2F)c1F` [Example 3AZ, 6-(2,6-difluoro-3-((5-fluoro-2-methylpyridine)-3-sulfonamido)phenyl)-7-fluoro-N-(3-hydroxypropyl)-1H-indazole-3-carboxamide] belongs above 6.30; to `COc1ncc(Cl)cc1S(=O)(=O)Nc1ccc(F)c(-c2ccc3c(C(=O)NC4COC4)n[nH]c3c2F)c1F` [Example 3B, 6-(3-((5-chloro-2-methoxy-pyridine)-3-sulfonamido)-2,6-difluorophenyl)-7-fluoro-N-(oxetan-3-yl)-1H-indazole-3-carboxamide], 5.00 to 5.60; to `Cc1ncc(F)cc1S(=O)(=O)Nc1ccc(F)c(-c2ccc3c(C(N)=O)n[nH]c3c2F)c1F` [Example 3BA, 6-(2,6-difluoro-3-((5-fluoro-2-methylpyridine)-3-sulfon-amido)phenyl)-7-fluoro-1H-indazole-3-carboxamide], above 6.30. Regarding `COc1ncc(Cl)cc1S(=O)(=O)Nc1cc(F)cc(-c2ccc3c(C(=O)NCCCN(C)C)n[nH]c3c2F)c1F` [Example 3BB, 6-(3-((5-chloro-2-methoxy-pyridine)-3-sulfonamido)-2,5-difluorophenyl)-N-(3-(dimethylamino)propyl)-7-fluoro-1H-indazole-3-carboxamide], the pIC50 was above 6.30.

The compound `COc1ncc(Cl)cc1S(=O)(=O)Nc1cccc(-c2cc3[nH]nc(C(=O)NCCCO)c3cn2)c1F` [Example 3BC, 6-(3-((5-chloro-2-methoxy-pyridine)-3-sulfonamido)-2-fluorophenyl)-N-(3-hydroxy-propyl)-1H-pyrazolo[4,3-c]pyridine-3-carboxamide] had a pIC50 above 6.30. To `COc1ncc(Cl)cc1S(=O)(=O)Nc1cccc(-c2cc3[nH]nc(C(N)=O)c3cn2)c1F` [Example 3BD, 6-(3-((5-chloro-2-methoxy-pyridine)-3-sulfonamido)-2-fluorophenyl)-1H-pyrazolo-[4,3-c]pyridine-3-carboxamide] belongs above 6.30; to `COc1ncc(F)cc1S(=O)(=O)Nc1ccc(F)c(-c2ccc3c(C(=O)NCC[C@H](O)CO)n[nH]c3c2F)c1F` [Example 3BE, 6-(2,6-difluoro-3-((5-fluoro-2-methoxypyridine)-3-sulfonamido)phenyl)-N-((S)-3,4-dihydroxybutyl)-7-fluoro-1H-indazole-3-carboxamide], above 6.30. `COc1ncc(F)cc1S(=O)(=O)Nc1ccc(F)c(-c2ccc3c(C(=O)NCC[C@@H](O)CO)n[nH]c3c2F)c1F` [Example 3BF, 6-(2,6-difluoro-3-((5-fluoro-2-methoxypyridine)-3-sulfonamido)phenyl)-N-((R)-3,4-dihydroxybutyl)-7-fluoro-1H-indazole-3-carboxamide] had a pIC50 above 6.30. To `COc1ncc(F)cc1S(=O)(=O)Nc1cccc(-c2ccc3c(C(=O)NCC[C@H](O)CO)n[nH]c3c2F)c1F` [Example 3BG, 6-(2-fluoro-3-((5-fluoro-2-methoxypyridine)-3-sulfonamido)phenyl)-N-((S)-3,4-dihydroxybutyl)-7-fluoro-1H-indazole-3-carboxamide] belongs above 6.30.

For orientation: pIC50 means the negative decadic logarithm of the IC50, by convention in mol/L. A higher pIC50 goes with a low IC50.
